The target in one experiment is T1, MAX:MAX (MAXbHLHZip) (Homo sapiens, UniProt P61244).
T1 construct: Recombinant MYC bHLHZip and MAX bHLHZip proteins were titrated
Briefly: Assay 1A MST, labelled MAX pre-mixed with MAX instead of MYC. Type of experiment: binding. The settings on record: 1 μM MAX instead of MYC. On the procedure: (§1) FIG. 1: A) Microscale thermophoresis (MST) of fluorescently labeled MAX in a MYC:MAX heterodimer formation assay based on recombinant proteins. MST of labeled MAXbHLHZip after titration of Example 1 pre-incubated with 1 μM MYCbHLHZip, or with 1 μM MAXbHLHZip. Fluorescence intensity of labeled MAXbHLHZip relative DMSO was plotted against Example 1 concentration. B) Surface plasmon resonance (SPR) of MYC:MAX heterodimer formation assay. MAXbHLHZip was immobilized by an amino coupling procedure to a CM5 sensor chip. MYCbHLHZip pre-incubated with or without compound (as indicated) was injected over MAX for 180 seconds, allowed to dissociate for 240 seconds and regenerated. […] C) MYC binding response units (RU) plotted against Example 1 concentration from which an IC50 of Example 1 inhibition of MYC:MAX heterodimer formation is determined, summary of four experiments.
(§2) MST measures the movement of fluorescent labelled molecules in a microscopic temperature gradient. Changes in charge, size or of the hydration shell of the fluorescent molecule affects its migration in the temperature gradient, which can be detected by the fluorescence of the molecule (See Seidel et al., Microscale thermophoresis quantifies biomolecular interactions under previously challenging conditions, METHODS (2013)). […] Capillaries were scanned to measure initial fluorescence of compound. […]

For experiment [1], the target named is T2, FRA1:JUN interaction in MDA-MB231 cells (Homo sapiens, UniProt P05412+P15407).
T2 construct: endogenous in cells; host or cells: MDA-MB231
T2 sequence (P15407 whole entry): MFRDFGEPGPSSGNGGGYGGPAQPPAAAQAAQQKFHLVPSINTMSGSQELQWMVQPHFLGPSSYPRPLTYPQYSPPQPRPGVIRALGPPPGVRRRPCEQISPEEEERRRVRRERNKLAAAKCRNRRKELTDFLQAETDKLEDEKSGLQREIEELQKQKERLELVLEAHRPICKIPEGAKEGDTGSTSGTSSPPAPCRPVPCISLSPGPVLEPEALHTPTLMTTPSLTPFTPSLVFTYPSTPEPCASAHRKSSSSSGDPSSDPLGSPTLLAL
T2 sequence (P05412 whole entry): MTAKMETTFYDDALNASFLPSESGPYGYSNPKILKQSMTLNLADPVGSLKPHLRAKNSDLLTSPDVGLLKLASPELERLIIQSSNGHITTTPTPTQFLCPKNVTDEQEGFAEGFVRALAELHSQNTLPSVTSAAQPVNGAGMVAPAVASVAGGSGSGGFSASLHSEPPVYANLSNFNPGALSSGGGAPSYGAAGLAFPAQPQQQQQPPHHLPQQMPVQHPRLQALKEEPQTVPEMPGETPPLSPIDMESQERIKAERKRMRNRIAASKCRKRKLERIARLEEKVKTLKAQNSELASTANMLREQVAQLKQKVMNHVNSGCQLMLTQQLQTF
Briefly: Assay 3A isPLA assay, FRA1:JUN. The conditions noted are these: 10 μM. Type of experiment: cell-based. On the procedure:
FIG. 4: A) Endogenous MYC:MAX (upper panel) and FRA1:JUN (lower panel) interactions as visualized as fluorescent red dots by isPLA. Nuclei were counterstained with DAPI (blue). Cells were treated with 10 μM of indicated compounds for 16 hours and subjected to isPLA using pairs of MYC and MAX and of FRA1 and JUN antibodies, respectively. As negative control, primary antibody pairs but only one oligo-conjugated secondary antibody was used. B) Quantification of MYC:MAX and C) FRA1:JUN isPLA, representing an average number of nuclear dots per cell from three microscopic fields normalized to corresponding values for DMSO-treated cells. […] 1st-4th lanes from top; coimmunoprecipitated MAX, immunoprecipitated MYC, total levels of MAX and ACTIN, respectively, as determined by western blot analysis. E) MYC:MAX GLuc assay in cells. […] 24 hours later cells were treated with […] of Example 1, Example 2 and control compound for 16 hours and thereafter analyzed in a dual luciferase assay. The ratio of Gaussia/Firefly luciferase luminescence were calculated and normalized to DMSO-treated cells.
Identification of endogenous protein-protein interactions in fixed cells and has been described (Soderberg, O. et al., Nat Methods, 3, 995-1000 (2006)). […] Endogenous MYC:MAX or FRA-1:JUN protein interactions were visualized by fluorescence microscopy as fluorescent dots mainly localized in the cell nucleus. […]

Experiment [2] concerns the target T3, MYC:MAX heterodimer (MYCbHLHZip, labelled MAXbHLHZip) (Homo sapiens, UniProt P01106).
T3 construct: MYC:MAX heterodimer formation assay based on recombinant proteins
Briefly: Assay 1A MYC:MAX heterodimer MST assay. Format: binding. The conditions noted are these: thermophoresis shift of 1 μM labelled MAXbHLHZip with 1 μM MYCbHLHZip. On the procedure:
as §1, with “experiments. […]” for “experiments.”
as §2

Experiment [3] concerns Tgr and H0Myc3 Rat1 fibroblast cells. Briefly: Assay 5B Tgr cell growth (WST-1), MYC expressing. Format: cell-based, rat. The conditions noted are these: 48 hours. On the procedure:
FIG. 6: A-B) Neuroblastoma cell lines with (SK-N-DZ, Kelly and IMR-32) or without (SK-N-F1, SK-N-RA and SK-N-AS) MYCN-amplification were exposed to different concentrations of Example 1, Example 2 and control compound, respectively, for 48 hours. Cell growth and viability was estimated by measuring metabolic activity. C) Growth of TGR-1 (wt), HO15.19 (MYC knockout) and HOmyc3 (MYC reconstituted HO15.19) Rat1 fibroblasts, as measured by the WST-1 assay after treatment with Example 1. Data are shown as mean±standard deviation of 3-5 biological experiments, each with 3 technical repeats.
Assay 5B: Tgr Cell Growth
Tgr cells were treated at 37° C. and 5% CO2 at 48 hours with Example and Example 2. H015.19 is a MYC null rat cell line derived from Tgr1 (parental cells), while H0Myc3 cells were generated from the MYC null cells by reconstitution of a MYC gene(Mateyak, M. K., Obaya, A. J., Adachi, S. & Sedivy, J. M. Phenotypes of c-Myc-deficient rat fibroblasts isolated by targeted homologous recombination. Cell Growth Differ 8, 1039-1048 (1997)).
Background: Tetrazolium assays rely on reduction of a dye to a coloured formazan, in cell work by metabolically active cells.

Structures are written as SMILES.

T1 sequence (P61244 22-102): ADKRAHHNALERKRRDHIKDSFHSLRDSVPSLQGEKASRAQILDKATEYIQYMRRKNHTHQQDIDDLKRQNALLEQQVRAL
T3 sequence (P01106 368-449 limits assumed, one chain of several): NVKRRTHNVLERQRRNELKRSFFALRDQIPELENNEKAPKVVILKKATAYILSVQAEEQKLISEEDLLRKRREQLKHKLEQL

Turning to `CCOc1ccc2nc3cc(/N=N/c4ccc(N)nc4N)ccc3c(N)c2c1` [Example 1, 3-((9-amino-7-ethoxyacridin-3-yl)diazenyl)pyridine-2,6-diamine sulphate hydrate], the “effect on labelled MAX thermophoresis when pre-mixed with MAX” value on MAX:MAX (MAXbHLHZip) is listed as “minor effects”. Further, in experiment [1], the “effect on FRA1:JUN interaction (isPLA)” value is recorded as “not affecting”. Further, the Kd in experiment [2] amounted to 4.3 µM. Besides, in experiment [3], the “growth of wt and reconstituted cells” value is reported as “strongly inhibited”. Also, the GI50 in experiment [3] (Rattus norvegicus, Fibroblast, first run) was 4 µM.

By Kd is commonly meant the equilibrium constant for the complex coming apart. The GI50 is the concentration giving 50% growth inhibition.

(Values after patent US11896589B2, “Diazinyl amino acridines and medical uses thereof” (MyCural Therapeutics AB, priority 2018, dated 2024).)
